{
  "source": "paper PMC7852567",
  "about": "“A first-in-human phase 1 and pharmacological study of TAS-119, a novel selective Aurora A kinase inhibitor in patients with advanced solid tumours” (British Journal of Cancer, 2020)",
  "key": {"[1]": {"tested_on": "cancer cells with MYC oncogene amplifications and/or mutations in the Wnt/β-catenin pathway", "parameters": "method as in PMID 22222631, doi:10.15761/IMM.1000162", "details": "cited from earlier work"}, "[2]": {"tested_on": "patients with advanced, refractory, solid tumours", "test": "First-in-human phase 1 study: safety, tolerability, DLT, MTD, RP2D", "assay_type": "in vivo", "details": "for DLT events in words: cycle 1", "method": "This multicentre study (six centres) consisted of a dose escalation part with a 3 + 3 design to explore safety and tolerability. Patients were enrolled into predefined dose levels (DLs; 70, 150, 200, 250, 300 mg BID) utilising a 4 days on/3 days off schedule 3 out of 4 weeks (intermittent schedule). The rationale for this intermittent schedule was based on pre-clinical data showing a more favourable toxicity profile, compared to continuous dosing regimens while maintaining antitumour activity. In addition to the 4 days on/3 days off, 3 out of 4 weeks schedule, a continuous dosing (200 mg BID) schedule with the same weekly schedule (4 days on/3 days off) administered 4 out of 4 weeks, was explored in the escalation phase. A minimum of 3 patients were to be treated at each DL, and at least 6 patients were planned to be enrolled at the MTD level. The MTD was defined as the highest DL at which <33% of patients experienced a dose-limiting toxicity (DLT) during cycle 1. The RP2D was defined as a dose below or equal to the MTD based on the evaluation of all available information (tolerability in cycles after cycle 1, PK, PD or other safety information). The RP2D was used in the expansion part of this study. Based on the safety profile assessed in the dose escalation part of this study, either the intermittent (3 out of 4 weeks) or the continuous dosing schedule (4 out of 4 weeks) could be selected.\nTAS-119 was administered orally BID as tablets of 25 and 100 mg strength, on an empty stomach. Based on rodent toxicology data, 70 mg BID was determined as the starting dose after conversion from the severely toxic dose in 10% of exposed animals (STD10) (63 mg/kg BID) to one tenth of the human equivalent dose. […] Non-haematological DLTs consisted of grade ≥3 toxicity (excluding nausea/vomiting lasting <48 h and controlled by anti-emetic therapy, diarrhoea lasting <48 h and responsive to anti-diarrhoea medication or hypersensitivity reactions), whereas haematological DLT consisted of any grade 4 neutropenia lasting >7 days, any febrile neutropenia (documented absolute neutrophil count <1000/mm^3) lasting >1 h, any grade 4 thrombocytopenia or grade 3 thrombocytopenia associated with bleeding and requiring blood transfusion.\nVital sign assessment, blood cell count, serum biochemistry, coagulation parameters, urinalysis, a 12-lead electrocardiogram and, if applicable, a pregnancy test were performed at baseline. In addition, after the amendment of the protocol (Amendment 2: 31-March-2015) an ophthalmologic assessment, including visual acuity, pupil shape and pupillary reflexes, extraocular motility (eye movement) and alignment, tonometry, visual field, external examination, slit-lamp examination, and fundoscopy, was performed and repeated in all patients on days 8 and 22 during cycle 1 and on day 1 of every subsequent cycle, beginning with cycle 3. This was a consequence of ocular toxicity observed in 2 out of 26 patients until that moment.\nAdverse events (AEs) at baseline and during the study were recorded and graded based on the Common Terminology Criteria for Adverse Events v4.03. Tumour measurements were done at the end of every second cycle or as per the Institutional standard of care in case of clinical indications. Response were assessed using Response Evaluation Criteria in Solid Tumours (RECIST) v1.1.[19]"}},
  "data": [
    {"smiles": "Cc1cc(Nc2nc(CC3(C(=O)O)CCN(C(=O)c4cccc(Cl)c4Cl)CC3)ccc2F)n[nH]1", "note": "[TAS-119]", "values": [
      {"measurement": "growth inhibitory effects on cancer cells with MYC amplifications and/or Wnt/β-catenin pathway mutations", "setting": "[1]", "result": "more potent growth inhibitory effects"},
      {"measurement": "maximum tolerated dose (MTD)", "setting": "[2]; 4 days on/3 days off, 3 out of 4 weeks", "result": 250, "unit": "mg BID"},
      {"measurement": "DLT events in words", "setting": "[2]; DL 2.2, 250 mg BID", "result": "one patient with grade 2 AEs of fatigue, corneal epithelial microcysts and nausea"},
      {"measurement": "DLT events in words", "setting": "[2]; DL 3, 300 mg BID, 2 patients", "result": "SAE of corneal microcysts, grade 2 and 3"},
      {"measurement": "AE with the outcome of death", "setting": "[2]; escalation part, one patient at DL 2 (150 mg BID), disease progression, deemed not study treatment related", "result": 3, "unit": "%"},
      {"measurement": "AEs with the outcome of death", "setting": "[2]; expansion part", "result": "No AEs with the outcome of death"},
      {"measurement": "AE: Alkaline phosphatase increase", "setting": "[2]; human, in vivo", "result": "7 (17.5) n, %"},
      {"measurement": "AE: Amylase increase", "setting": "[2]; human, in vivo", "result": "4 (10.0) n, %"},
      {"measurement": "AE: Gamma-glutamyltransferase increase", "setting": "[2]; human, in vivo", "result": "7 (17.5) n, %"},
      {"measurement": "AE: Headache", "setting": "[2]; human, in vivo", "result": "5 (12.5) n, %"},
      {"measurement": "AE: Hyperglycaemia", "setting": "[2]; human, in vivo", "result": "5 (12.5) n, %"},
      {"measurement": "AE: Hypoalbuminaemia", "setting": "[2]; human, in vivo", "result": "5 (12.5) n, %"},
      {"measurement": "AE: Hypokalaemia", "setting": "[2]; human, in vivo", "result": "4 (10.0) n, %"},
      {"measurement": "AE: Hypotension", "setting": "[2]; human, in vivo", "result": "5 (14.7) n, %"},
      {"measurement": "AE: Pruritis", "setting": "[2]; human, in vivo", "result": "4 (10.0) n, %"},
      {"measurement": "AE: Upper respiratory tract infection", "setting": "[2]; human, in vivo", "result": "5 (12.5) n, %"},
      {"measurement": "AE: Urinary tract infection", "setting": "[2]; human, in vivo", "result": "6 (15.0) n, %"},
      {"measurement": "AE: Weight loss", "setting": "[2]; human, in vivo", "result": "4 (11.8) n, %"},
      {"measurement": "AEs leading to discontinuation of study drug", "setting": "[2]; human, in vivo", "result": 12, "unit": "%"},
      {"measurement": "AEs leading to discontinuation of the study drug", "setting": "[2]; human, in vivo", "result": 8, "unit": "%"},
      {"measurement": "dose dependence of ocular toxicity", "setting": "[2]; human, in vivo", "result": "dose dependent and only seen at doses of 200 mg BID and above"},
      {"measurement": "grade ≥3 diarrhoea", "setting": "[2]; human, in vivo", "result": "5/74"},
      {"measurement": "grade ≥3 increased lipase without symptoms of pancreatitis", "setting": "[2]; human, in vivo", "result": "9/74"},
      {"measurement": "ocular side effects, in total", "setting": "[2]; human, in vivo", "result": 9, "unit": "patients"},
      {"measurement": "ocular toxicity throughout the various DLs", "setting": "[2]; human, in vivo", "result": "38 % of the patients"},
      {"measurement": "recommended phase 2 dose (RP2D)", "setting": "[2]; human, in vivo", "result": 200, "unit": "mg BID"},
      {"measurement": "treatment-related AEs leading to discontinuation of study drug", "setting": "[2]; human, in vivo", "result": 9, "unit": "%"},
      {"measurement": "patients with DLT during cycle 1", "setting": "[2]; in vivo", "result": "Five"},
      {"measurement": "patients with an ocular DLT", "setting": "[2]; in vivo", "result": "four"},
      {"measurement": "treatment-related AEs leading to discontinuation of the study drug", "setting": "[2]; in vivo", "result": "none"}
    ]}
  ]
}
